One assay deals with T1, SYK kinase (Homo sapiens, UniProt P43405).
T1 construct: purchased Invitrogen, Carlsbad
Description: SYK Assay (OMNIA Kinase Assay, SOX peptide fluorescence). The class given is biochemical. The note with it: 1 mM ATP, 10 μM Omnia Peptide Substrate Tyr 7, 30° C., readings for 30 minutes; read-out: SYK Activities: IC50. The protocol:
In the assay OMNIA® KINASE ASSAY by Invitrogen Corporation (Carlsbad) the effect of invention of a compound on the phosphorylation is determined by measurement of fluorescence intensity of a chelation-enhanced fluorophore called SOX. Upon phosphorylation of the peptide by the kinase of interest, Mg2+ is chelated to form a bridge between the SOX moiety and the phosphate group that is transferred to the specific tyrosine on the peptide. The fluorescence intensity is directly proportional to the amount of peptide phosphorylation.
To the wells of an 384 well small volume plate (Greiner, Frickenhausen) are added (i) the compound under test in 5% DMSO/distilled water (2 μl), (ii) 16 μl of the master mix containing ATP, DTT, Kinase Reaction Buffer, Omina Peptide Substrate Tyr 7 resulting in a final concentration of 1 mM ATP, 0.2 mM DTT and 10 μM Peptide Substrate.
The Master Mix and the assay plate was incubated to reaction temperature before the measurement (30° C.). The reaction was started with addition of (iii) 2 μl 4 μg/ml SYK kinase (Invitrogen, Carlsbad). During measurement fluorescence intensity readings were collected using a TECAN M1000 at a wavelength of λex 360/λem 485 nm every 30 s for 30 minutes. The reaction velocity was plotted versus the inhibitor concentration to determine the IC50 using XLFit 5.0 (IDBS, Guildford) to fit to a sigmoidal dose response curve.

The target in another assay is LRRK2 (Homo sapiens, UniProt Q5S007). Nature of the assay: LRRK2-LRRK2 G2019S-Assay (LanthaScreen Eu Kinase Binding Assay). The note with it: 5 nM LRRK2, 10 nM tracer 236, 2 nM EU-Anti-GST antibody, 1 h at RT; read-out: LRRK2 Activities: IC50. An outline of the steps: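 Compound competition with Alexa Fluor 647 tracer 236 (10 nM) was measured after 1 h at room temperature, using 5 nM LRRK2 (wild type or mutant) bound to 2 nM Eu-anti-GST antibody. IC50 was derived from the acceptor/donor (665/615 nm) ratio using a variable-slope dose-response fit.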
Chain of LRRK2 (Q5S007 970-2527 limits assumed): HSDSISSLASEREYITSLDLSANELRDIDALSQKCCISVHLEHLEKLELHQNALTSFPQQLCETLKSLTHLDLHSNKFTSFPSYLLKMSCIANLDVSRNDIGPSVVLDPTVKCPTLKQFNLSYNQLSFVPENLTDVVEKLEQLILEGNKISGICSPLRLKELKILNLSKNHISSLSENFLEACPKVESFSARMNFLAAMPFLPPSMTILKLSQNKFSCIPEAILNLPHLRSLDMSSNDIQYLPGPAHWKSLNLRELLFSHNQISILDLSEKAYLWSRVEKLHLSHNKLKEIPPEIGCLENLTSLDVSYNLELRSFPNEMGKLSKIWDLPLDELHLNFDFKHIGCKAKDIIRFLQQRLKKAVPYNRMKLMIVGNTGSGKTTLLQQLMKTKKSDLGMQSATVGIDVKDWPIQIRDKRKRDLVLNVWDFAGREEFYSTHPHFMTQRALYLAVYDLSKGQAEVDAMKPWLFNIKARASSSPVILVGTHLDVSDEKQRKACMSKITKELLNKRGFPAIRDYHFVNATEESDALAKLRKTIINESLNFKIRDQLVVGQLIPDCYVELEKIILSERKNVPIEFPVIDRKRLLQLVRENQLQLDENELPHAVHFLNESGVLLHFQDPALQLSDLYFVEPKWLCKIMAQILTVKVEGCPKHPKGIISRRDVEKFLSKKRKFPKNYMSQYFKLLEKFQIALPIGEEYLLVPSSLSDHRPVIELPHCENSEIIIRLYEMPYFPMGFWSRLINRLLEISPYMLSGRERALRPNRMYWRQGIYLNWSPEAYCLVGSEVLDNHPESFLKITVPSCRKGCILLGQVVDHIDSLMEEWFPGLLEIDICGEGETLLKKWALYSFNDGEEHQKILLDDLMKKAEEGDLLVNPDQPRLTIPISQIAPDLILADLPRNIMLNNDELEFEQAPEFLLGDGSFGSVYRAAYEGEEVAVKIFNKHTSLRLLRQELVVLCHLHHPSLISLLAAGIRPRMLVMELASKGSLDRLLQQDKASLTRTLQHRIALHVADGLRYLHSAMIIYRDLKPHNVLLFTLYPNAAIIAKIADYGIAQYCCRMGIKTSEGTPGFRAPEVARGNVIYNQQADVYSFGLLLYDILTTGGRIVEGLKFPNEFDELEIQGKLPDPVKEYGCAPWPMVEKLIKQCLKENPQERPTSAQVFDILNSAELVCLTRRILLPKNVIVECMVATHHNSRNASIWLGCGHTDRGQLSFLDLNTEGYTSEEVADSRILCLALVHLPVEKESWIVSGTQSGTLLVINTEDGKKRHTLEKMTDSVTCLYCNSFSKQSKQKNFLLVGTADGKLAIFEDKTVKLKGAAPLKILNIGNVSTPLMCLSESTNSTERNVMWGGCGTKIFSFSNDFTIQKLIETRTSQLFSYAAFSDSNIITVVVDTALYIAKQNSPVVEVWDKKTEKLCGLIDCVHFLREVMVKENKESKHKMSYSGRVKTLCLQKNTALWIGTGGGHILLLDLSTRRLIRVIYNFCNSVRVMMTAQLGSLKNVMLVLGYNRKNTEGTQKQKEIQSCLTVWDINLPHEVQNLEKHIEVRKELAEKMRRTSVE

In the case of `CN1CCN(C2CCN(c3ccc(Nc4nc5cccc(F)c5c5cn[nH]c45)cc3)CC2)CC1` [Example 1, 9-fluoro-N-(4-(4-(4-methylpiperazin-1-yl)piperidin-1-yl)phenyl)-3H-pyrazolo[3,4-c]quinolin-4-amine], the IC50 at SYK kinase was 0.1 to 1 µM; on LRRK2, 0.01 to 0.1 µM.

`COc1ccc2nc(Nc3ccc(N4CCC(N5CCN(C)CC5)CC4)cc3)c3n[nH]cc3c2c1` [Example 3, 8-methoxy-N-(4-(4-(4-methylpiperazin-1-yl)piperidin-1-yl)phenyl)-2H-pyrazolo[3,4-c]quinolin-4-amine]: the IC50 at SYK kinase fell in the range of 0.1 to 1 µM; on LRRK2 it was 0.01 to 0.1 µM.

Take `COc1ccc2nc(Nc3ccc(C(=O)N4CCC(N5CCN(C)CC5)CC4)cc3)c3n[nH]cc3c2c1` [Example 6, (4-((8-methoxy-2H-pyrazolo[3,4-c]quinolin-4-yl)amino)phenyl)(4-(4-methylpiperazin-1-yl)piperidin-1-yl)methanone]: the IC50 on SYK kinase was 0.1 to 1 µM; on LRRK2 it was 0.01 to 0.1 µM.

Consider `Fc1cccc2nc(Nc3ccc(N4CCN(C5CC5)CC4)cc3)c3[nH]ncc3c12` [Example 10, N-(4-(4-cyclopropylpiperazin-1-yl)phenyl)-9-fluoro-3H-pyrazolo[3,4-c]quinolin-4-amine], for which the IC50 on SYK kinase and on LRRK2 was 0.1 to 1 µM each time.

As for `COc1cccc2nc(Nc3ccc(N4CCC(N5CCN(C)CC5)CC4)cc3)c3[nH]ncc3c12` [Example 21, 9-methoxy-N-(4-(4-(4-methylpiperazin-1-yl)piperidin-1-yl)phenyl)-3H-pyrazolo[3,4-c]quinolin-4-amine], the IC50 was in the range of 0.1 to 1 µM on SYK kinase and 0.01 to 0.1 µM on LRRK2.

Consider `COc1ccc2nc(Nc3ccc(CN4CCC(N5CCN(C)CC5)CC4)cc3)c3n[nH]cc3c2c1` [Example 22, 8-methoxy-N-(4-((4-(4-methylpiperazin-1-yl)piperidin-1-yl)methyl)phenyl)-2H-pyrazolo[3,4-c]quinolin-4-amine], for which the IC50 on SYK kinase and at LRRK2 was 0.1 to 1 µM throughout.

`CSc1ccc2nc(Nc3ccc(N4CCN(C(C)=O)CC4)cc3)c3[nH]ncc3c2c1` [Example 46, 1-(4-(4-((8-(methylthio)-3H-pyrazolo[3,4-c]quinolin-4-yl)amino)phenyl)piperazin-1-yl)ethan-1-one]: the IC50 at SYK kinase lay in the range of 0.1 to 1 µM; at LRRK2, 0.01 to 0.1 µM.

On to `CSc1ccc2nc(Nc3ccc4c(c3)NC(=O)CC4)c3[nH]ncc3c2c1` [Example 47, 7-((8-(methylthio)-3H-pyrazolo[3,4-c]quinolin-4-yl)amino)-3,4-dihydroquinolin-2(1H)-one], for which the IC50 on SYK kinase and on LRRK2 was below 0.01 µM each time.

Turning to `CSc1ccc2nc(Nc3ccc(CN(C)C)cc3)c3[nH]ncc3c2c1` [Example 48, N-(4-((dimethylamino)methyl)phenyl)-8-(methylthio)-3H-pyrazolo[3,4-c]quinolin-4-amine], the IC50 on SYK kinase and on LRRK2 was 0.01 to 0.1 µM throughout.

For the compound `CSc1ccc2nc(Nc3ccc4c(c3)CN(C)C4)c3[nH]ncc3c2c1` [Example 49, N-(2-methylisoindolin-5-yl)-8-(methylthio)-3H-pyrazolo[3,4-c]quinolin-4-amine], the IC50 is 0.1 to 1 µM at SYK kinase and 0.01 to 0.1 µM on LRRK2.

In the case of `CS(=O)(=O)c1ccc2nc(Nc3ccc(N4CCOCC4)cc3)c3[nH]ncc3c2c1` [Example 55, 8-(methylsulfonyl)-N-(4-morpholinophenyl)-3H-pyrazolo[3,4-c]quinolin-4-amine], the half-maximal inhibitory concentration (IC50) on SYK kinase is below 0.01 µM; at LRRK2 it was 0.01 to 0.1 µM.

As for `COc1ccc2nc(Nc3ccc4[nH]c(SC)nc4c3)c3n[nH]cc3c2c1` [Example 56, 8-methoxy-N-(2-(methylthio)-1H-benzo[d]imidazol-5-yl)-2H-pyrazolo[3,4-c]quinolin-4-amine], the IC50 on SYK kinase and at LRRK2 was 0.1 to 1 µM in each case.

Consider `COc1cccc2nc(Nc3ccc(-c4cnco4)cc3)c3[nH]ncc3c12` [Example 57, 9-methoxy-N-(4-(oxazol-5-yl)phenyl)-3H-pyrazolo[3,4-c]quinolin-4-amine], for which the IC50 was 0.1 to 1 µM at SYK kinase and 0.01 to 0.1 µM on LRRK2.

Regarding `CC(=O)N1CCN(c2ccc(Nc3nc4ccc(S(C)(=O)=O)cc4c4cn[nH]c34)cc2)CC1` [Example 62, 1-(4-(4-((8-(methylsulfonyl)-3H-pyrazolo[3,4-c]quinolin-4-yl)amino)phenyl)piperazin-1-yl)ethan-1-one], the figures for the IC50 at SYK kinase and at LRRK2 were below 0.01 µM and 0.01 to 0.1 µM, respectively.

For the compound `CS(=O)(=O)c1ccc2nc(Nc3ccc(C(=O)N4CCOCC4)cc3)c3[nH]ncc3c2c1` [Example 64, (4-((8-(methylsulfonyl)-3H-pyrazolo[3,4-c]quinolin-4-yl)amino)phenyl)(morpholino)methanone], the IC50 on SYK kinase and at LRRK2 was 0.01 to 0.1 µM throughout.

With `CC(=O)N1CCC(n2cc(Nc3nc4ccc(S(C)(=O)=O)cc4c4cn[nH]c34)cn2)CC1` [Example 115, 1-(4-(4-((8-(methylsulfonyl)-3H-pyrazolo[3,4-c]quinolin-4-yl)amino)-1H-pyrazol-1-yl)piperidin-1-yl)ethan-1-one], on SYK kinase, the IC50 was below 0.01 µM.

For `COCCn1cc(Nc2nc3cccc(OC)c3c3c[nH]nc23)cn1` [Example 116, 9-methoxy-N-(1-(2-methoxyethyl)-1H-pyrazol-4-yl)-2H-pyrazolo[3,4-c]quinolin-4-amine], the IC50 on SYK kinase fell in the range of 0.1 to 1 µM.

For the compound `COc1cccc2nc(Nc3cnn(C4CCN(C(C)=O)CC4)c3)c3[nH]ncc3c12` [Example 117, 1-(4-(4-((9-methoxy-3H-pyrazolo[3,4-c]quinolin-4-yl)amino)-1H-pyrazol-1-yl)piperidin-1-yl)ethan-1-one], the 50% inhibitory concentration (IC50) at SYK kinase lay within 0.1 to 1 µM.

With `COc1ccc2nc(Nc3cnn(C4CCN(C)CC4)c3)c3n[nH]cc3c2c1` [Example 151, 8-methoxy-N-(1-(1-methylpiperidin-4-yl)-1H-pyrazol-4-yl)-2H-pyrazolo[3,4-c]quinolin-4-amine], on SYK kinase, the IC50 was in the range of 0.01 to 0.1 µM.

Consider `COc1ccc2nc(Nc3cnn(C4CCN(C(C)=O)CC4)c3)c3n[nH]cc3c2c1` [Example 152, 1-(4-(4-((8-methoxy-2H-pyrazolo[3,4-c]quinolin-4-yl)amino)-1H-pyrazol-1-yl)piperidin-1-yl)ethan-1-one], for which the IC50 on SYK kinase lay within 0.01 to 0.1 µM.

Regarding `COCCn1cc(Nc2nc3ccc(S(C)(=O)=O)cc3c3cn[nH]c23)cn1` [Example 153, N-(1-(2-methoxyethyl)-H-pyrazol-4-yl)-8-(methylsulfonyl)-3H-pyrazolo[3,4-c]quinolin-4-amine], at SYK kinase, the IC50 lay in the range of 0.01 to 0.1 µM.

For `Cc1c(Nc2nc3ccc(S(C)(=O)=O)cc3c3cn[nH]c23)cnn1C(C)C` [Example 218, N-(1-isopropyl-5-methyl-1H-pyrazol-4-yl)-8-(methylsulfonyl)-3H-pyrazolo[3,4-c]quinolin-4-amine], the IC50 at SYK kinase lay within 0.1 to 1 µM.

With `COCCn1cc(Nc2nc3ccc(S(C)(=O)=O)cc3c3cn[nH]c23)c(C#N)n1` [Example 248, 1-(2-methoxyethyl)-4-((8-(methylsulfonyl)-3H-pyrazolo[3,4-c]quinolin-4-yl)amino)-1H-pyrazole-3-carbonitrile], on SYK kinase, the IC50 lay within 0.1 to 1 µM.

As to `COc1ccc2nc(Nc3cnn(CCF)c3)c3[nH]ncc3c2c1` [Example 291, N-(1-(2-fluoroethyl)-1H-pyrazol-4-yl)-8-methoxy-3H-pyrazolo[3,4-c]quinolin-4-amine], at SYK kinase, the IC50 was 0.1 to 1 µM.

For `COc1cc(OC)c2nc(Nc3cnn(C(C)C)c3)c3[nH]ncc3c2c1` [Example 294, N-(1-isopropyl-1H-pyrazol-4-yl)-6,8-dimethoxy-3H-pyrazolo[3,4-c]quinolin-4-amine], the IC50 at SYK kinase was in the range of 0.1 to 1 µM.

On to `COc1cc(OC)c2nc(Nc3cnn(C4CCN(C(C)(C)C)CC4)c3)c3[nH]ncc3c2c1` [Example 295, N-(1-(1-(tert-butyl)piperidin-4-yl)-1H-pyrazol-4-yl)-6,8-dimethoxy-3H-pyrazolo[3,4-c]quinolin-4-amine], for which the IC50 on SYK kinase fell in the range of 0.01 to 0.1 µM.

For `CS(=O)(=O)c1ccc2nc(Nc3cnn(-c4ccccn4)c3)c3n[nH]cc3c2c1` [Example 341, 8-(methylsulfonyl)-N-(1-(pyridin-2-yl)-1H-pyrazol-4-yl)-2H-pyrazolo[3,4-c]quinolin-4-amine], on SYK kinase, the IC50 lay in the range of 0.1 to 1 µM.

On to `CS(=O)(=O)c1ccc2nc(Nc3ccc(N4CCOCC4)c(C#N)c3)c3n[nH]cc3c2c1` [Example 354, 5-((8-(methylsulfonyl)-2H-pyrazolo[3,4-c]quinolin-4-yl)amino)-2-morpholinobenzonitrile], for which the IC50 at SYK kinase lay in the range of 0.01 to 0.1 µM.

As for `Brc1cccc2c1nc(Nc1cnn(C3CCOCC3)c1)c1[nH]ncc12` [Example 355, 6-bromo-N-(1-(tetrahydro-2H-pyran-4-yl)-1H-pyrazol-4-yl)-3H-pyrazolo[3,4-c]quinolin-4-amine], the IC50 on SYK kinase was in the range of 0.01 to 0.1 µM.

A word on the IC50: it is the midpoint of a concentration-inhibition curve.

These data come from patent publication US10752624B2, “Kinase inhibitors” (Origenis GmbH, priority 2012, dated 2020).
